Converted amounts (≈) assume the structure as drawn.
Assay: Solubility test of Gatifloxacin (Test Example 1)
Format: physicochemical
Conditions: for solubility thermodynamic at 3 h: pH 6.5, aqueous buffer, thermodynamic from solid, pH 6.5, stirred 3 hours at room temperature
Protocol: According to the formulations shown in Table 1, a saturated solution of Gatifloxacin containing the given amount of each additive was prepared. The solution containing sodium dihydrogen phosphate, boric acid or malonic acid was adjusted to a pH of 6.5 with hydrochloric acid and sodium hydroxide, and then stirred for 3 hours at room temperature. The solution containing nicotinamide was adjusted to 6.0 with hydrochloric acid and sodium hydroxide, filled in glass ampoules and shaken for 2 days at room temperature. As a control, a saturated solution of Gatifloxacin containing no additive was prepared, its pH was adjusted to 6.5 with hydrochloric acid and sodium hydroxide, and stirred for 3 hours at room temperature. Each solution was filtered through a membrane filter (0.45 μm), and the filtrate (1 mL) was precisely measured and a diluent was added thereto to precisely make its volume up to 50 mL. The resultant solution (3 mL) was precisely measured, an internal standard solution (3 mL) was precisely added thereto, and a diluent was added thereto to precisely make its volume up to 20 mL to prepare a sample solution. The concentration of Gatifloxacin was measured in the sample solution (20 μL) under the following HPLC conditions. The solubility was converted in terms of Gatifloxacin 3/2 hydrate.
Detector: Ultraviolet absorptiometer (measurement wavelength: 280 nm) Column: Inertsil ODS-2 […], 4.6 mmφ×150 mm, GL Sciences Inc. Column temperature: 40° C. Mobile phase: acetonitrile (180 mL), water (810 mL) and triethylamine (10 mL) were mixed, and the pH was adjusted to 4.5 with phosphoric acid. Flow rate: 0.8 mL/min Injection amount: 20 μL Internal standard solution: a mobile phase solution of methyl p-aminobenzoate (1→10000) Diluent: Mixture of acetonitrile, water and phosphoric acid (200:800:0.8)

- Solubility of Gatifloxacin (nicotinamide 1 w/v %, pH 6.0, shaken 2 days at room temperature, in terms of 3/2 hydrate): 1.41 w/v %
- solubility thermodynamic at 3 h (sodium dihydrogen phosphate dihydrate 0.5 w/v %, in terms of 3/2 hydrate): 7200 µg/mL (≈ 19.2 mM)
- solubility thermodynamic at 3 h (sodium dihydrogen phosphate dihydrate 1 w/v %, in terms of 3/2 hydrate): 9100 µg/mL (≈ 24.2 mM)
- solubility thermodynamic at 3 h (saturated solution containing boric acid 0.5 w/v %, boric acid 0.5 w/v %, in terms of 3/2 hydrate): 5800 µg/mL (≈ 15.5 mM)
- solubility thermodynamic at 3 h (saturated solution containing boric acid 1 w/v %, boric acid 1 w/v %, in terms of 3/2 hydrate): ~6000 µg/mL (≈ 16 mM)
- solubility thermodynamic at 3 h (saturated solution containing malonic acid 0.5 w/v %, malonic acid 0.5 w/v %, in terms of 3/2 hydrate): 9600 µg/mL (≈ 25.6 mM)
- solubility thermodynamic at 3 h (saturated solution containing malonic acid 1 w/v %, malonic acid 1 w/v %, in terms of 3/2 hydrate): 9300 µg/mL (≈ 24.8 mM)
- solubility thermodynamic at 3 h (saturated solution containing no additive (control), no additive (control), in terms of Gatifloxacin 3/2 hydrate): 5300 µg/mL (≈ 14.1 mM)
SMILES: COc1c(N2CCNC(C)C2)c(F)cc2c(=O)c(C(=O)O)cn(C3CC3)c12 (racemic) [Gatifloxacin, (±)-1-cyclopropyl-6-fluoro-1,4-dihydro-8-methoxy-7-(3-methyl-1-piperazinyl)-4-oxo-3-quinolinecarboxylic acid]
